ChEMBL document CHEMBL3232824, “New synthesis of 3-(β-D-glucopyranosyl)-5-substituted-1,2,4-triazoles, nanomolar inhibitors of glycogen phosphorylase” (Eur J Med Chem, 2014)
Active and inactive are the calls of the source. The rule behind the calls is not given here.

Target: T1, Glycogen phosphorylase, muscle form (Oryctolagus cuniculus, UniProt P00489)
T1 sequence (P00489 whole entry): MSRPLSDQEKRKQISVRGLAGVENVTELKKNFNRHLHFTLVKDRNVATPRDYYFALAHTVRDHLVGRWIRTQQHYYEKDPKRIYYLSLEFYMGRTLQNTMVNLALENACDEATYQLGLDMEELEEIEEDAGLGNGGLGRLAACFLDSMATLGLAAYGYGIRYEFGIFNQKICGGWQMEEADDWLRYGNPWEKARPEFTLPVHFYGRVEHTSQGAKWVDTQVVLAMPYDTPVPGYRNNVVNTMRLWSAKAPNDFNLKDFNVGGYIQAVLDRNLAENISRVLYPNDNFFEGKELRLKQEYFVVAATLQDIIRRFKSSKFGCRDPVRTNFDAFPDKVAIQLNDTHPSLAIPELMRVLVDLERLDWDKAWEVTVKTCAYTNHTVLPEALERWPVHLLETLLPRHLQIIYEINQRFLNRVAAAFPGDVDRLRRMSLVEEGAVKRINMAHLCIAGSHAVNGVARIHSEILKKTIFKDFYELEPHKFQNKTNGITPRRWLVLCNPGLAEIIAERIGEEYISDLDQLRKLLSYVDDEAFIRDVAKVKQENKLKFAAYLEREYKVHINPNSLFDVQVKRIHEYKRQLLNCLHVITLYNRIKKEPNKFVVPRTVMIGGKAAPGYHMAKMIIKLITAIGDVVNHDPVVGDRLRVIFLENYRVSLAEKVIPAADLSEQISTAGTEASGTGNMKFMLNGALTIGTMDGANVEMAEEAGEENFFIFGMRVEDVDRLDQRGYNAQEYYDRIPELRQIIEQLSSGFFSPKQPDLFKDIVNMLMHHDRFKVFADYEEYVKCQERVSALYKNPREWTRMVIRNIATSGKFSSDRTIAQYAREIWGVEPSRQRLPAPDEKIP
Assay: not given

Question: For Nc1ccc(-c2n[nH]c([C@@H]3O[C@H](CO)[C@@H](O)[C@H](O)[C@H]3O)n2)cc1, which Ki is on record?
Answer: 0.67 µM

Question: Nc1cc(N)cc(-c2n[nH]c([C@@H]3O[C@H](CO)[C@@H](O)[C@H](O)[C@H]3O)n2)c1 was tested. Which Ki did it give?
Answer: 14 µM

Question: With OC[C@H]1O[C@@H](c2nc(-c3ccc(C(F)(F)F)cc3)n[nH]2)[C@H](O)[C@@H](O)[C@@H]1O as the compound, how does the Ki read?
Answer: 111 µM

Question: With OC[C@H]1O[C@@H](c2nc(-c3ccccc3)no2)[C@H](O)[C@@H](O)[C@@H]1O as the compound, how does the Ki read?
Answer: 27 µM

Question: Which Ki does the source give for OC[C@H]1O[C@@H](c2nc(-c3ccccn3)n[nH]2)[C@H](O)[C@@H](O)[C@@H]1O here?
Answer: 707 µM

Question: Which Ki does the source give for OC[C@H]1O[C@@H](c2nc(-c3ccc4ccccc4c3)no2)[C@H](O)[C@@H](O)[C@@H]1O here?
Answer: 12 µM

Question: With O=[N+]([O-])c1ccc(-c2n[nH]c([C@@H]3O[C@H](CO)[C@@H](O)[C@H](O)[C@H]3O)n2)cc1 as the compound, how does the Ki read?
Answer: 33.5 µM

Question: With Cc1ccc(-c2n[nH]c([C@@H]3O[C@H](CO)[C@@H](O)[C@H](O)[C@H]3O)n2)cc1 as the compound, how does the Ki read?
Answer: 1.7 µM

Question: With OC[C@H]1O[C@@H](c2nc(-c3ccc(O)cc3)n[nH]2)[C@H](O)[C@@H](O)[C@@H]1O as the compound, how does the Ki read?
Answer: 2.9 µM

Question: For CC(C)(C)c1ccc(-c2n[nH]c([C@@H]3O[C@H](CO)[C@@H](O)[C@H](O)[C@H]3O)n2)cc1, which Ki is on record?
Answer: 778 µM

Question: OC[C@H]1O[C@@H](c2nc3cc4ccccc4cc3[nH]2)[C@H](O)[C@@H](O)[C@@H]1O was tested. Which Ki did it give?
Answer: 2.1 µM

Question: Which Ki does the source give for Cc1n[nH]c([C@@H]2O[C@H](CO)[C@@H](O)[C@H](O)[C@H]2O)n1 here?
Answer: 499 µM

Question: Which Ki does the source give for COc1ccc(-c2n[nH]c([C@@H]3O[C@H](CO)[C@@H](O)[C@H](O)[C@H]3O)n2)cc1 here?
Answer: 1.9 µM

Question: For Cc1cc(C)cc(-c2n[nH]c([C@@H]3O[C@H](CO)[C@@H](O)[C@H](O)[C@H]3O)n2)c1, which Ki is on record?
Answer: 39.7 µM

Target: T2, Glycogen phosphorylase, muscle form (Oryctolagus cuniculus) (UniProt P00489)
T2 sequence (whole entry): T1 sequence (P00489 whole entry)
Assay: Inhibition of rabbit muscle glycogen phosphorylase b at 625 uM

Question: For CC(C)(C)c1n[nH]c([C@@H]2O[C@H](CO)[C@@H](O)[C@H](O)[C@H]2O)n1, which inhibition is on record?
Answer: inactive

Question: Which inhibition does the source give for O=[N+]([O-])c1cc(-c2n[nH]c([C@@H]3O[C@H](CO)[C@@H](O)[C@H](O)[C@H]3O)n2)cc([N+](=O)[O-])c1 here?
Answer: inactive

Question: For O=C(O)c1ccc(-c2n[nH]c([C@@H]3O[C@H](CO)[C@@H](O)[C@H](O)[C@H]3O)n2)cc1, which inhibition is on record?
Answer: inactive

Target: T2, Glycogen phosphorylase, muscle form (Oryctolagus cuniculus)
Assay: Inhibition of rabbit muscle glycogen phosphorylase b

Question: Cc1nc([C@@H]2O[C@H](CO)[C@@H](O)[C@H](O)[C@H]2O)no1 was tested. Which inhibition did it give?
Answer: inactive
